Laboratory results as given in ChEMBL document CHEMBL3507680, “University of Dundee, Gates Library screen for HepG2 cell viability”.

Experiment: Human HepG2 cell viability assay in 384 well format
Type: toxicity, cell-based
Set-up: dose 125 nL, time 70.5 hour; cytotoxicity at 70.5 h: concentration not given beside the values
Conditions: HepG2 cells, read-out: Inhibition

In the case of `Cc1ccc(NC(=O)Nc2c[nH]c(=O)[nH]c2=O)c(C)c1`, the cytotoxicity at 70.5 h is reported as 11.8%.
`c1cc(CNCc2ccnc(N3CCOCC3)c2)c2c(c1)OCCO2` showed a cytotoxicity at 70.5 h of -9.77%.
`CC(=O)N1CCN(S(=O)(=O)c2ccc(C)c(F)c2)CC1` showed a cytotoxicity at 70.5 h of -4.35%.
Compound `Cc1cc(N2CCCC(OC(=O)CCN3CCCC3=O)C2)nc(C)n1` (stereo unspecified) has a cytotoxicity at 70.5 h of -5.43%.
In the case of `Cc1ccc(CC(=O)N2CCOCC2c2ncon2)cc1` (stereo unspecified), the cytotoxicity at 70.5 h is reported as -5.42%.
With `Cc1nc(CN2CCCC(N(C)Cc3c(C)noc3C)C2)no1` (stereo unspecified) the cytotoxicity at 70.5 h was 10.6%.
`CC(C)(C)c1nc(CN2CCCC(c3noc(C4CC4)n3)C2)no1` (stereo unspecified) gave a cytotoxicity at 70.5 h of -4.22%.
In the case of `COCC(C)NC(=O)N1CCN(S(C)(=O)=O)CC1` (stereo unspecified), the cytotoxicity at 70.5 h is reported as -2.46%.
In the case of `COc1cc(C)c(CN2CCC3(CC2)[C@H](O)C[C@@H]3OCCN)cc1C`, the cytotoxicity at 70.5 h is reported as 28.1%.
`Cc1ncsc1C(=O)NCCOc1ncc(Cl)cc1Cl` showed a cytotoxicity at 70.5 h of 1.13%.
Work on `CN(Cc1ccncc1)C(CO)c1cccc(F)c1` (stereo unspecified) yielded a cytotoxicity at 70.5 h of -27.2%.
Compound `COCCOCC(=O)NC1CCN(c2ccccn2)CC1` has a cytotoxicity at 70.5 h of 16.4%.
In the case of `c1ccc(OCc2cscn2)c(CNC2CCc3ncnn3C2)c1` (stereo unspecified), the cytotoxicity at 70.5 h is reported as -4.78%.
`CCc1noc(C2CCCCN2C(=O)c2nnc3ccccc3n2)n1` (stereo unspecified) showed a cytotoxicity at 70.5 h of 17.3%.
`CCCS(=O)(=O)N1CC[C@@H]2[C@@H]1CC(=O)N2Cc1csc(C)n1` showed a cytotoxicity at 70.5 h of -4.88%.
`CCCC(CNc1cc(C(C)C)nc2ccnn12)N(C)C` (stereo unspecified) gave a cytotoxicity at 70.5 h of 39.1%.
`CC(=O)Nc1nc(C(=O)NCCOc2ccccc2)cs1` gave a cytotoxicity at 70.5 h of -6.89%.
In the case of `Cn1cc(CN2CCc3nc4sccc4c(=O)n3CC2)cn1`, the cytotoxicity at 70.5 h is reported as -3.58%.
`O=C(NCc1ccc(F)cc1)C1CCCN(c2ccc3nncn3n2)C1` (stereo unspecified) showed a cytotoxicity at 70.5 h of 22%.
`O=C(c1ccsc1)N1C[C@@H]2CCN(C(=O)c3cscn3)[C@@H]2C1` showed a cytotoxicity at 70.5 h of -6.91%.
`Cc1nc2c(C(=O)N[C@H]3C[C@H]4CN(C)CCN4C3)cccc2[nH]1` gave a cytotoxicity at 70.5 h of -10.2%.
Compound `Cc1cc(C(F)(F)F)c2c(=O)n(Cc3ccon3)n(C)c2n1` has a cytotoxicity at 70.5 h of -5.27%.
In the case of `CC(=O)NC(C)C(=O)NCc1ccc(N2CCNC(=O)C2)cc1` (stereo unspecified), the cytotoxicity at 70.5 h is reported as -15.7%.
For `Cc1nc(N2CCOCC2)nc2c1CN(CC(=O)N(C)C)CC2`, the cytotoxicity at 70.5 h was -13.5%.
For `CC(=O)N1CCN(c2cc(C3CN(C)CCO3)nc(C)n2)CC1` (stereo unspecified), the cytotoxicity at 70.5 h was -11.6%.
Compound `COC(=O)c1ccc(N2CCC(N(C)c3ccccc3)CC2)nn1` has a cytotoxicity at 70.5 h of 3.35%.
`Cn1cc(CNCCOc2ccc(F)c(F)c2)c(-c2cccnc2)n1` showed a cytotoxicity at 70.5 h of -5.61%.
`CCc1cc(CN(C)C(=O)C2CC(=O)N(c3cccc(O)c3)C2)on1` (stereo unspecified) showed a cytotoxicity at 70.5 h of -1.3%.
Compound `O=C(O)c1ccnc(-c2ccnc(NCCc3nc4c(s3)CCC4)n2)c1` has a cytotoxicity at 70.5 h of -6.73%.
Work on `CCCc1nnsc1C(=O)NCC(O)c1ccc(SC)cc1` (stereo unspecified) yielded a cytotoxicity at 70.5 h of 28.8%.
For `COC(=O)c1cccc(C2CNCCN2C)c1` (stereo unspecified), the cytotoxicity at 70.5 h was 12%.
`CN(C)C(=O)CO[C@@H]1CN(Cc2ccccc2)[C@@H]2CCCO[C@@H]21` gave a cytotoxicity at 70.5 h of 6.93%.
For `COCCNc1ccccc1CNC(=O)C1CCCOC1` (stereo unspecified), the cytotoxicity at 70.5 h was -2.32%.
Work on `CC(=O)N1CC2(CCCC2)c2ccccc21` yielded a cytotoxicity at 70.5 h of -3.2%.
`Cc1nc(-c2cc(Cl)c3c(c2)CC(CN)O3)c[nH]1` (stereo unspecified) showed a cytotoxicity at 70.5 h of 0.0695%.
In the case of `CCOc1ccc2nc(CN3CCC(CNC(C)=O)C3)ccc2c1` (stereo unspecified), the cytotoxicity at 70.5 h is reported as 1.6%.
For `O=C([C@H]1C[C@@H]2CN(c3ncc(F)cn3)C[C@H]1O2)N1CCOCC1`, the cytotoxicity at 70.5 h was -7.72%.
Compound `COc1ccc([C@@H]2CN(C(=O)c3cscn3)C[C@H]2C(=O)O)cc1` has a cytotoxicity at 70.5 h of -3.2%.
In the case of `Cc1csc(NC(=O)CN(C)CCOc2cccc(F)c2)n1`, the cytotoxicity at 70.5 h is reported as 15.2%.
For `CC(C)(C)n1cc(CNc2ccc(CNS(C)(=O)=O)cc2)cn1`, the cytotoxicity at 70.5 h was -8.49%.
`O=C1NC2(CCN(C(=O)Cc3ccsc3)CC2)CC1c1ccncc1` (stereo unspecified) gave a cytotoxicity at 70.5 h of -4.21%.
In the case of `Cn1ccc(CN2CCCC23CCNCC3)n1`, the cytotoxicity at 70.5 h is reported as -5.64%.
In the case of `N#Cc1ccccc1CN1CCC(CN2CCOCC2)C1` (stereo unspecified), the cytotoxicity at 70.5 h is reported as -5.31%.
`CC1Cc2ccccc2N1Cc1occc1C(=O)NCC(=O)N(C)C` (stereo unspecified) showed a cytotoxicity at 70.5 h of -1.83%.
In the case of `O=C1CSc2ccccc2N1CC(=O)N1CCCCC1c1nccs1` (stereo unspecified), the cytotoxicity at 70.5 h is reported as -8.8%.
`Cc1ccc(-c2nnc(CNCCn3cccn3)o2)cc1` gave a cytotoxicity at 70.5 h of 13.9%.
In the case of `CCN(CC)CCN(CC(C)C)c1cc(C(F)(F)F)nc2ncnn12`, the cytotoxicity at 70.5 h is reported as 0.687%.
Work on `O=C(NCCOc1ncc(Cl)cc1Cl)c1ccoc1` yielded a cytotoxicity at 70.5 h of 21.7%.
`COc1cccc(N2CCC(CNC(=O)CN3CSCC3=O)C2)c1` (stereo unspecified) gave a cytotoxicity at 70.5 h of -9.99%.
For `c1cncc(CN2CCc3ncnc(NCCc4c[nH]cn4)c3CC2)c1`, the cytotoxicity at 70.5 h was -1.46%.
With `CO[C@H]1CCN(Cc2cccs2)[C@@H]2CN(Cc3ccncc3)C[C@H]12` the cytotoxicity at 70.5 h was -2.84%.
Work on `CCOc1ccccc1CN1CCc2nc3ccsc3c(=O)n2CC1` yielded a cytotoxicity at 70.5 h of -7.1%.
For `NCc1cccc(NC(=O)CCN2CCOCC2)c1`, the cytotoxicity at 70.5 h was -9.57%.
With `CC(C)Cc1noc(-c2ccc(NCc3noc(C(C)C)n3)nc2)n1` the cytotoxicity at 70.5 h was -5.16%.
`CCOC(C)c1noc(CN2CCN(Cc3cccnc3)CC2)n1` (stereo unspecified) showed a cytotoxicity at 70.5 h of 34.3%.
`O=C(NC1CCN(c2cccc(OC(F)(F)F)c2)C1=O)C1CC1` (stereo unspecified) showed a cytotoxicity at 70.5 h of 0.481%.
